According to PMC12591163, “Controllable Generation of Pathogen‐Specific Antimicrobial Peptides Through Knowledge‐Aware Prompt Diffusion Model” (Advanced Science, 2025):
Ends that are not written are not given here. Peptide text beside a SMILES is read from it.

Experiments:
Assay type in all cases: cell-based
E. coli ATCC 25922 = conditions: for antimicrobial activity against E. coli (in words): activity threshold defined as MIC ⩽ 128 µg mL^−1; for MIC against E. coli: ATCC 25922
Experimental: (§1) 2.3Details of the wet-lab evaluation […]
(§2) Pathogens used for minimum inhibitory concentration (MIC) measurements included E. coli ATCC 25922 and S. aureus
(§3) ATCC 25923. Both pathogens were streaked on Luria–Bertani (LB) agar and incubated at 37°C overnight. Individual colonies
(§4) were then selected from the agar plates and transferred to Mueller–Hinton broth (MHB) (Hopebio, China) for further cultivation.
(§5) The cultures were shaken at 160 rpm at 37°C overnight. Once the turbidity of the bacterial suspensions reached between 0.4
(§6) and 0.6 McFarland (MCF), the suspensions were diluted 20-fold with MHB. For the preparation of antimicrobial peptide
(§7) solutions, chemically synthesized peptides were dissolved in either ultrapure water (Biosharp, China) or dimethyl sulfoxide
(§8) (DMSO) (Biosharp, China) to achieve a stock concentration of […]. This stock solution was then further diluted with
(§9) MHB to obtain the concentration gradient of 2 to 512 µg/mL for testing. Subsequently, 200 µL of each peptide dilution was
(§10) pipetted into 96-well plates, followed by the addition of 10 µL of the diluted bacterial suspension to each well. The plates were
(§11) incubated at 37°C for 14-20 hours, and MIC values were determined as the lowest peptide concentration at which no bacterial
(§12) growth was observed. Antimicrobial activity assays were conducted in 96-well plates with […] experimental groups as follows:
(§13) 1) blank control group, containing 200 µL of MHB without bacterial suspension; 2) bacterial control group, with 200 µL of
(§14) MHB and 10 µL of bacterial suspension without peptide; 3) peptide treatment groups, consisting of 200 µL of MHB containing
(§15) varying peptide concentration gradient of 2 to 512 µg/mL along with 10 µL of bacterial suspension. All experiments were
(§16) conducted in triplicate. The positive (proper growth of bacteria) and negative (sterility) controls were included.
(§17) The Cell Counting Kit-8 (CCK-8) assay was employed to evaluate the cytotoxicity of peptides against human lung epithelial
(§18) Beas-2B cells. The cells were seeded at a density of 5× 10^3 cells per 100 µL in 96-well plates and cultured overnight at 37°C
(§19) with 5% CO2. Subsequently, the cells were treated with 100 µL of F-12K medium (Procell, China) containing the peptide
(§20) concentration gradient of 4 to 512 µg/mL and incubated for 24 hours. After incubation, 10 µL of CCK-8 solution (Abbkine,
(§21) China) was added to each well, and the cells were incubated for an additional 4 hours at 37°C. Optical density (OD) at 450 nm
(§22) was measured using an automated microplate reader (BioTek, USA). Each treatment was performed in six duplicate wells.
(§23) Cell viability was calculated as the percentage relative to the control, using the formula: Cell viability (%) = [(OD[peptide] -
(§24) OD[blank]) / (OD[control] - OD[blank])] × 100%.
(§25) 3.1More landscape for peptide datasets
(§26) For the diversity of GO terms, the biological process category encompasses 3,430 terms (accounting for 47% of the total terms)
(§27) and 245,683 peptides (representing 22% of the total peptides); the cellular component category includes 819 terms (11%) and
(§28) 469,675 peptides (43%); the molecular function category covers 3,017 terms (42%) and 389,436 peptides (35%). In the context
(§29) of pathogen diversity (Table 1), the Gram-positive group comprises 24 distinct pathogens (accounting for 43% of the total
(§30) pathogen numbers), and 31,726 peptide terms (representing 49% of the total peptide numbers). The Gram-negative group is
(§31) characterized by 17 pathogens (constituting 30% of the pathogen diversity), and 28,206 peptide terms (making up 44% of the […]

S. aureus ATCC 25923 = test system: S. aureus ATCC 25923
Experimental: as §1, §2, §3, §4, §5, §6, §7, §8, §9, §10, §11, §12, §13, §14, §15, §16, §17, §18, §19, §20, §21, §22, §23, §24, §25, §26, §27, §28, §29, §30, §31

[1] = test system: human lung epithelial Beas-2B cells; conditions: 24 h

Row | Compound | antimicrobial activity against E. coli (in words) (E. coli ATCC 25922) | MIC against E. coli (E. coli ATCC 25922) | MIC against S. aureus (S. aureus ATCC 25923; ATCC 25923) | antimicrobial activity against S. aureus (in words) (S. aureus ATCC 25923; activity threshold defined as MIC ⩽ 128 µg mL^−1) | peptide concentration causing 50% cytotoxicity (CC50) [1]
1 | CC(C)C[C@H](NC(=O)[C@H](Cc1ccc(O)cc1)NC(=O)CNC(=O)[C@H](CO)NC(=O)[C@H](CC(C)C)NC(=O)[C@H](CCCNC(=N)N)NC(=O)[C@H](CCCNC(=N)N)NC(=O)[C@@H](NC(=O)[C@H](Cc1ccccc1)NC(=O)[C@H](CC(C)C)NC(=O)[C@@H](N)Cc1ccccc1)C(C)C)C(=O)N[C@@H](CC(N)=O)C(=O)N[C@@H](Cc1ccc(O)cc1)C(=O)N[C@H](C(=O)N[C@H](C(=O)N[C@@H](CCCNC(=N)N)C(=O)N[C@@H](CS)C(=O)N[C@@H](CCCNC(=N)N)C(=O)N[C@@H](CCCNC(=N)N)C(=O)N[C@@H](Cc1ccccc1)C(=O)N[C@@H](CCCCN)C(=O)N[C@@H](Cc1ccccc1)C(=O)N[C@@H](CS)C(=O)N[C@@H](C)C(=O)O)C(C)C)[C@@H](C)O [Pep6] (H-FLFVRRLSGYLNYTVRCRRFKFCA-OH; N-terminus and C-terminus assumed) | demonstrated the activity |  |  |  | 
2 | MARRKPLGKKLRLRAAFK [Pep8] |  | ≥ 512 µg/mL |  |  | 
3 | KRTSQQRLQRLITVGRFRLW [Pep7] |  | ≥ 512 µg/mL |  |  | 
4 | AKRYYWRWFKHWYRFAHG [Pep10] | exhibit antimicrobial activity |  | 16 µg/mL | exhibit antimicrobial activity | ≥ 256 µg/mL
